{
  "source": "patent US8076485B2",
  "about": "“Methylphenidate derivatives and uses of them” (priority 2005, dated 2011)",
  "key": {"[1]": {"conditions": "threo versus erythro methylphenidate; cited from earlier work"}, "NFκB": {"system": "NFκB", "experiment": "Activated NFκB in TNFα- or VEGF-treated HIAECs (TransAM assay)", "type": "cell-based", "conditions": "Homo sapiens, TNFα 10 ng/ml, Cpd II 15 μg/ml, LY 294002 10 μM, read-out: Percent Inhibition (NFκB)", "experimental": "Passage 8 (human iliac artery endothelial cells (HIAECs) (obtained from ATCC; catalog no. CC-2545) were grown to confluence in 25 cm^2 flasks in EGM-2 medium. Eighteen hours prior to the experiment, the medium was replaced with EGM-2 medium containing 0.1% FCS plus heparin, GA1000 (gentamycin) and bovine pituitary extract (all from Cambrex) to place the cells in a resting state. To perform the experiment the medium was aspirated from the flasks, and the following additives were added to the flasks in fresh medium (total volume of 5 ml/flask): 15 μg/ml of the compound of formula II (Cpd II) or 10 μM LY 294002. The flasks were incubated 2 hours at 37° C., 5% CO2. After this incubation, VEGF or TNFα was added to give a final concentration 10 ng/ml, and the flasks were incubated for an additional 30 minutes. Then, the amount of NFκB was determined using a TransAM™ NFκB p65/NFκB p50 Transcription Factor Assay Kit and a Nuclear Extract Kit from Active Motif North America, Carlsbad, Calif., as described in Example 12."}, "erythropoietin (EPO)": {"system": "erythropoietin (EPO)", "experiment": "Erythropoietin (EPO) release from HepG2 cells (ELISA)", "type": "cell-based, human", "conditions": "HepG2, hypoxia (5% CO2), 24 hours; Cpd II 15 μg/ml, LY 294002 25 μM; hypoxia alone 108.39 ± 2.81", "experimental": "HepG2 is a human hepatic cancer cell line, which was obtained from ATCC. HepG2 cells were grown to confluence in 25 cm^2 flasks in IMDM medium containing 10% FCS. Then, the cells were trypsinized as follows. The medium in each flask was aspirated and replaced with 5 ml of 0.025% trypsin/EDTA (Cambrex). The cells were monitored on a microscope until they no longer adhered to the flasks. Then, 5 ml of trypsin neutralizing solution (TNS) (Cambrex) were added to each flask to stop the reaction. The cell suspension was centrifuged at 1000 rpm for 10 minutes, and the supernatants were aspirated. The cells were reconstituted in fresh medium and counted. Then, 4 ml of the cell suspension in medium containing at 1.22×10^6 cells/ml were mixed with an additional 1 ml of medium. Next, 0.5 ml/well of the resulting cell suspension was added to wells in a 24-well culture plate (about 500,000 cells/well). The cells were treated as indicated in Table 5 below and incubated for 24 hours at 37° C., with or without 5% CO2. The supernatants were removed from the wells and centrifuged to remove debris. Next, the supernatants were analyzed for erythropoietin (EPO) production. EPO was measured by ELISA using a kit obtained from R & D Systems, Minneapolis, Minn. (catalog no. DE900) following the manufacturer's instructions."}, "TNFα": {"system": "TNFα", "experiment": "TNFα release from LPS-stimulated THP-1 monocytes (ELISA)", "type": "cell-based", "conditions": "THP-1, LPS 200 ng/ml, 24 hours; Cpd II 15 μg/ml, Dex 10 μM", "experimental": "(§1) THP-1 is a monocyte cell line obtained from American Type Culture Collection (ATCC) (catalog no. TIB-202). […] After 1 hour, lipopolysaccharide (LPS) (obtained from Sigma) was added to the cultures to give a final concentration of 200 ng/ml, and the cells were then incubated for an additional 4 hours or for an additional 24 hours. After the incubation, the cells were centrifuged, and the supernatants were collected. The concentrations of IL-8 and TNFα in the supernatants were determined by ELISA.\nThe TNFα ELISA was performed as described in Example 2."}, "IL-8": {"system": "IL-8", "experiment": "IL-8 release from LPS-stimulated THP-1 monocytes (ELISA)", "type": "cell-based", "conditions": "THP-1, LPS 200 ng/ml, 24 hours; Cpd II 15 μg/ml, Dex 10 μM", "experimental": "as §1\nThe concentrations of IL-8 in the supernatants were determined by ELISA performed as described in Example 4."}, "TCR-positive cells": {"system": "TCR-positive cells", "experiment": "Annexin staining of TCR-positive cells (flow cytometry, cell death)", "type": "cell-based, human", "conditions": "PHA plus dexamethasone 10 μM", "experimental": "After this incubation, PHA was added to give a final concentration of 5 μg/ml, and the cells were incubated for an additional 72 hours at 37° C., 5% CO2. All cultures were performed in triplicate. Cells were then removed by centrifugation at 1000 rpm for 10 minutes.\nThe cells were further analyzed by flow cytometry Annexin was used to determine populations of dead or dying cells. Anti-CD69 antibody was used to establish the level of cellular activation. Antibody to T-cell receptor αβ (TCR) was also used. Recombinant Annexin 5 (PE and FITC conjugates) and the antibodies were all purchase from Caltag (Burlingham, Calif.) and used following the manufacturer's recommendations."}},
  "data": [
    {"smiles": "COC(=O)C(c1ccccc1)C1CCCCN1", "note": "(single isomer, unassigned) [threo diastereomer]", "values": [
      {"measurement": "potency relative to the erythro diastereomer", "setting": "[1]", "value": "about 80 times"}
    ]},
    {"smiles": "O=c1cc(N2CCOCC2)oc2c(-c3ccccc3)cccc12", "note": "[LY 294002, reference compound]", "values": [
      {"measurement": "inhibition at 10 µM", "setting": "NFκB", "value": 10, "unit": "%"},
      {"measurement": "Mean Units/ml EPO", "setting": "erythropoietin (EPO)", "value": "52.99 ± 1.04", "unit": "Units/ml"}
    ]},
    {"smiles": "C[C@@H]1C[C@H]2[C@@H]3CCC4=CC(=O)C=C[C@]4(C)[C@@]3(F)[C@@H](O)C[C@]2(C)[C@@]1(O)C(=O)CO", "note": "[dexamethasone, reference compound]", "values": [
      {"measurement": "Mean TNFα Concentration", "setting": "TNFα", "value": "94.759 ± 8.755", "unit": "pg/mL"},
      {"measurement": "Mean IL-8 Concentration", "setting": "IL-8", "value": "2300.00 ± 283.41", "unit": "pg/mL"},
      {"measurement": "Annexin staining of TCR-positive cells", "setting": "TCR-positive cells", "value": 48, "unit": "%"}
    ]}
  ]
}
